Tests used:
[1] = system: NCI-H23 (Mut) lung tumor cells; test: CyQUANT proliferation assay; assay type: cell-based; parameters: key to IC50 proliferation NCI-H23 (Mut): NE—Not efficacious; settings: 72 h
Description: (§1) Madine Darby Canine Kidney epithelial cells (MDCK) stably co-expressing mGFP-tagged full length oncogenic mutant K-Ras (GFP—K-RASG12V) or mGFP-LactC2 (peptide probe for phosphatidylserine) and mCherry-tagged to the amino acids 179-189 of H-RasC181S, C184S (mCherry-CAAX, localizes primarily to endomembranes) were grown in DMEM-high glucose/sodium pyruvate/10% FBS. The medium was supplemented with 1× Penicillin/Streptomycin for fluorescence microscopy assays, to avoid any microbial contamination from the test compounds added. KLE and Hec50 cells were maintained in DMEM-F-12 medium supplemented with 10% FBS. Hec-1A and Hec-1B cells were grown in McCoy's 5a medium supplemented with 10% FBS. ESS-1 cells were grown in RPMI 1640 medium supplemented with 20% FBS. MPanc96 cells were grown in DMEM supplemented with 10% FBS, MiaPaCa-2 cells in DMEM supplemented with 10% FBS and 2.5% horse serum and all other cell lines were grown in RPMI 1640 supplemented with 10% FBS. All cancer cell media were supplemented with ×Penicillin/Streptomycin. All cell lines were grown at 37° C. with 5% CO2.
(§2) Cells were seeded in 96-well plates. After 24 h, fresh growth medium supplemented with 0.1% vehicle (DMSO), or various concentrations of drugs was added and cells were grown for 72 h. Cell numbers were quantified using the CyQUANT® Cell Proliferation Assay Kit (Molecular Probes, Life Technologies), according to the manufacturer's protocol. Fluorescence measurement was used as a measure of live cell number.

[2] = system: Ishikawa (WT) endometrial tumor cells; test: CyQUANT proliferation assay; assay type: cell-based; parameters: key to IC50 proliferation Ishikawa (WT): NE—Not efficacious; settings: 72 h
Description: as §1, §2

[3] = system: NCI H522 (WT) lung tumor cells; test: CyQUANT proliferation assay; assay type: cell-based; parameters: key to IC50 proliferation NCI H522 (WT): NE—Not efficacious; settings: 72 h
Description: as §1, §2

[4] = system: MOH (Mut) pancreatic tumor cells; test: CyQUANT proliferation assay; assay type: cell-based; parameters: key to IC50 proliferation MOH (Mut): NE—Not efficacious; settings: 72 h
Description: as §1, §2

[5] = system: MDCK cells co-expressing GFP-K-RASG12V and mCherry-CAAX; test: Cytotoxicity in mislocalization screen (death of all cells in well); settings: drug caused death of all cells in well at 30 μM
[6] = system: HPAC (Mut) pancreatic tumor cells; test: CyQUANT proliferation assay; assay type: cell-based; parameters: key to IC50 proliferation HPAC (Mut): NE—Not efficacious; settings: 72 h
Description: as §1, §2

[7] = system: BxPC-3 (WT) pancreatic tumor cells; test: CyQUANT proliferation assay; assay type: cell-based; parameters: key to IC50 proliferation BxPC-3 (WT): NE—Not efficacious; settings: 72 h
Description: as §1, §2

[8] = system: H1925 (WT) lung tumor cells; test: CyQUANT proliferation assay; assay type: cell-based; parameters: key: NE—Not efficacious; settings: 72 h
Description: as §1, §2

[9] = system: SW1116 (Mut) colon tumor cells; test: CyQUANT proliferation assay; assay type: cell-based; parameters: key: NE—Not efficacious; settings: 72 h
Description: as §1, §2

[10] = system: KLE (WT) endometrial tumor cells; test: CyQUANT proliferation assay; assay type: cell-based; parameters: key: NE—Not efficacious; settings: 72 h
Description: as §1, §2

[11] = target: mGFP-K-RASG12V (Homo sapiens (Human), UniProt P01116, G12V); test: K-Ras mislocalization assay (confocal microscopy, Manders coefficient); assay type: cell-based; parameters: key to Emax: Manders coefficient: fraction of mCherry-CAAX co-localizing with GFP-K-Ras; settings: MDCK cells, 48 h
How it was run: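 Readout is the Manders coefficient: share of mCherry-CAAX overlapping mGFP-K-RASG12V in confocal images, proportional to K-Ras mislocalization. Stable MDCK co-expressing lines were exposed 48 h to various drug concentrations or 0.1% DMSO vehicle, then paraformaldehyde-fixed.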

CN1CCN(CCN(CC=C(c2ccccc2)c2ccccc2)[C@@H]2C[C@H]2c2ccccc2)CC1 [NY0590, (1R,2S)-N-(3,3-diphenylallyl)-N-(2-(4-methylpiperazin-1-yl)ethyl)-2-phenylcyclopropan-1-amine]
945 nM: EC50 ([11]; batch 4 compounds, title calls it IC50, read-out: EC50)
NE: IC50 proliferation NCI-H23 (Mut) [1] | IC50 proliferation Ishikawa (WT) [2] | IC50 proliferation NCI H522 (WT) [3] | IC50 proliferation MOH (Mut) [4] | IC50 proliferation HPAC (Mut) [6] | IC50 proliferation BxPC-3 (WT) [7] | Potency proliferation H1925 (WT) [8] | Potency proliferation SW1116 (Mut) [9] | IC50 proliferation KLE (WT) [10]
Yes: Cytotoxic at 30 μM [5]
0.893: Emax ([11]; maximal effect, Manders coefficient)

— patent US12043602B2, “Fendiline derivatives” (The Board of Regents of the University of Texas System, priority 2019, dated 2024)
